Experimental findings from patent publication US5827895A, “Hexahydrolupulones useful as anticancer agents” (Regents of the University of Minnesota, priority 1996, dated 1998) are described below.

What is called inhibition is the relative decrease from the control value, in per cent.

Common to all, as to assay: microbe, parasite or virus in culture
What all share (format): cell-based, M. tuberculosis

Assay [1] concerns Pyrazinamide Resistant TB. The note with it: Mycobacterium tuberculosis, read-out: inhibition of Pyrazinamide Resistant TB growth.
Assay [2] has as its system Isoniazid Resistant TB. The note with it: Mycobacterium tuberculosis, read-out: inhibition of Isoniazid Resistant TB growth.
Assay [3] has as its system Isoniazid and Rifampin Resistant TB. The conditions noted are these: Mycobacterium tuberculosis, read-out: inhibition of Isoniazid and Rifampin Resistant TB.

Take `CC(C)CCC1=C(O)C(C(=O)C(C)C)=C(O)C(CCC(C)C)(CCC(C)C)C1=O` [HHC, hexahydrocolupulone]: the inhibition at 75 µM in assay [1] stood at 98%; in assay [2], 91%; in assay [3] it was 92%.
